Experimental data as given in ChEMBL document CHEMBL1201862, “PubChem BioAssay data set” (2004).
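Results reflect a 48-hour exposure of cells in 96-well plates to compound at five concentrations. GI50 marks 50% less growth.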 Active and inactive are the calls of the source. Cut-off read from the data, not from the text of the source: active = GI50 up to about 1.1 µM and inactive = higher.

Key:
Assay in all cases: growth of human tumour cells (NCI), 48 h
MDA-N = test system: MDA-N
U-251 = test system: U-251
SK-MEL-2 = test system: SK-MEL-2
NCI-H23 = test system: NCI-H23
OVCAR-3 = test system: OVCAR-3
COLO 205 = test system: COLO 205
SK-OV-3 = test system: SK-OV-3
LOX IMVI = test system: LOX IMVI
CCRF-CEM = test system: CCRF-CEM
PC-3 = test system: PC-3
A549 = test system: A549
HCT-116 = test system: HCT-116
NCI-H522 = test system: NCI-H522
RPMI-8226 = test system: RPMI-8226
Malme-3M = test system: Malme-3M
UACC-62 = test system: UACC-62
SW-620 = test system: SW-620
IGROV-1 = test system: IGROV-1
NCI-H460 = test system: NCI-H460
MDA-MB-231 = test system: MDA-MB-231
ACHN = test system: ACHN
MDA-MB-435 = test system: MDA-MB-435
EKVX = test system: EKVX
M14 = test system: M14
SN12C = test system: SN12C
RXF 393 = test system: RXF 393
HOP-92 = test system: HOP-92
KM12 = test system: KM12
HT-29 = test system: HT-29
HL-60 = test system: HL-60
HCC 2998 = test system: HCC 2998
786-0 = test system: 786-0
OVCAR-8 = test system: OVCAR-8
TK-10 = test system: TK-10
SF-539 = test system: SF-539
BT-549 = test system: BT-549
SF-295 = test system: SF-295
A498 = test system: A498
CAKI-1 = test system: CAKI-1
SK-MEL-28 = test system: SK-MEL-28
SF-268 = test system: SF-268
SK-MEL-5 = test system: SK-MEL-5
Hs-578T = test system: Hs-578T
HOP-62 = test system: HOP-62
NCI/ADR-RES = test system: NCI/ADR-RES
DU-145 = test system: DU-145
SNB-19 = test system: SNB-19
HCT-15 = test system: HCT-15
UACC-257 = test system: UACC-257
T47D = test system: T47D
MCF7 = test system: MCF7
MOLT-4 = test system: MOLT-4
OVCAR-4 = test system: OVCAR-4
OVCAR-5 = test system: OVCAR-5
NCI-H226 = test system: NCI-H226
K562 = test system: K562
UO-31 = test system: UO-31
SR = test system: SR
SNB-75 = test system: SNB-75

Measured: GI50

C=CC(C)(C)/C=C/c1ccc(O)cc1
39.1 µM: HCT-15
inactive: MDA-N 35 µM | U-251 30 µM | SK-MEL-2 23.4 µM | NCI-H23 31.8 µM | OVCAR-3 28.8 µM | COLO 205 35.5 µM | SK-OV-3 49.7 µM | LOX IMVI 21.9 µM | CCRF-CEM 39.3 µM | PC-3 28 µM | A549 29.1 µM | HCT-116 31.3 µM | NCI-H522 34.4 µM | RPMI-8226 27.5 µM | Malme-3M 36.8 µM | UACC-62 42.7 µM | SW-620 33.3 µM | IGROV-1 44 µM | NCI-H460 19.8 µM | MDA-MB-231 36.4 µM | ACHN 28.9 µM | MDA-MB-435 37.9 µM | EKVX 45.3 µM | M14 43.1 µM | SN12C 34.5 µM | RXF 393 24.8 µM | HOP-92 47 µM | KM12 39.3 µM | HT-29 38.2 µM | HL-60 37.6 µM | HCC 2998 27.9 µM | 786-0 27.7 µM | OVCAR-8 39.7 µM | TK-10 36.1 µM | SF-539 30.1 µM | BT-549 36.5 µM | SF-295 27 µM | A498 28.3 µM | CAKI-1 44.7 µM | SK-MEL-28 35.9 µM | SF-268 33.9 µM | SK-MEL-5 38.5 µM | Hs-578T 39.2 µM | HOP-62 58.2 µM | NCI/ADR-RES 47.9 µM | DU-145 40.4 µM | SNB-19 44.3 µM | UACC-257 24 µM | T47D 20 µM | MCF7 35.7 µM | MOLT-4 38.5 µM | OVCAR-4 55.5 µM | OVCAR-5 46.6 µM

CN1CCCN(C)CCCN(C)CCCN(C)CCC1
inactive: MDA-N > 100 µM | U-251 > 100 µM | SK-MEL-2 > 100 µM | NCI-H23 > 100 µM | OVCAR-3 > 100 µM | NCI-H226 > 100 µM | COLO 205 > 100 µM | SK-OV-3 > 100 µM | CCRF-CEM > 100 µM | PC-3 > 100 µM | A549 > 100 µM | HCT-116 > 100 µM | NCI-H522 > 100 µM | RPMI-8226 > 100 µM | Malme-3M > 100 µM | UACC-62 > 100 µM | SW-620 > 100 µM | IGROV-1 > 100 µM | MDA-MB-231 > 100 µM | ACHN > 100 µM | MDA-MB-435 > 100 µM | EKVX > 100 µM | M14 > 100 µM | K562 > 100 µM | RXF 393 > 100 µM | KM12 > 100 µM | HT-29 > 100 µM | HCC 2998 > 100 µM | 786-0 > 100 µM | OVCAR-8 > 100 µM | TK-10 > 100 µM | BT-549 > 100 µM | UO-31 > 100 µM | SF-295 > 100 µM | CAKI-1 > 100 µM | SK-MEL-28 > 100 µM | SR > 100 µM | SF-268 > 100 µM | SK-MEL-5 > 100 µM | Hs-578T > 100 µM | HOP-62 > 100 µM | NCI/ADR-RES > 100 µM | DU-145 > 100 µM | SNB-19 > 100 µM | UACC-257 > 100 µM | T47D > 100 µM | MCF7 > 100 µM | MOLT-4 > 100 µM | OVCAR-4 > 100 µM | OVCAR-5 > 100 µM
> 100 µM: HCT-15

O=C1OC(c2ccco2)=N/C1=C\c1ccc(Cl)c(Cl)c1
inactive: MDA-N > 100 µM | U-251 57.7 µM | SK-MEL-2 > 100 µM | NCI-H23 > 100 µM | OVCAR-3 89.7 µM | NCI-H226 57.5 µM | COLO 205 > 100 µM | SK-OV-3 47.2 µM | LOX IMVI > 100 µM | CCRF-CEM > 100 µM | PC-3 > 100 µM | A549 62.1 µM | HCT-116 72.8 µM | NCI-H522 51.4 µM | RPMI-8226 > 100 µM | Malme-3M 86.1 µM | UACC-62 > 100 µM | SW-620 > 100 µM | IGROV-1 > 100 µM | NCI-H460 88.7 µM | MDA-MB-231 > 100 µM | ACHN 60 µM | MDA-MB-435 > 100 µM | EKVX 75.9 µM | M14 > 100 µM | K562 > 100 µM | SN12C > 100 µM | RXF 393 22 µM | HOP-92 > 100 µM | KM12 > 100 µM | HT-29 > 100 µM | HL-60 > 100 µM | SNB-75 53.8 µM | HCC 2998 70.8 µM | 786-0 38 µM | OVCAR-8 56.2 µM | TK-10 66.7 µM | SF-539 50 µM | BT-549 > 100 µM | SF-295 > 100 µM | A498 > 100 µM | CAKI-1 91 µM | SK-MEL-28 > 100 µM | SR > 100 µM | SF-268 59.6 µM | SK-MEL-5 > 100 µM | Hs-578T 36.1 µM | HOP-62 27.4 µM | DU-145 98.6 µM | SNB-19 > 100 µM | UACC-257 > 100 µM | T47D 40.9 µM | MCF7 3.67 µM | MOLT-4 > 100 µM | OVCAR-4 85.1 µM | OVCAR-5 > 100 µM
> 100 µM: HCT-15
